Source: patent US20030040105A1, “Microfluidic micromixer” (priority 1999, published 2003)

Target: T1, streptavidin coated bead bearing fluorescein biotin (Streptomyces avidinii, UniProt P22629)
T1 construct: purchased Spherotech Inc., Libertyville, Ill
Assay: unquenching of fluorescein biotin streptavidin beads by native biotin, flow cytometry
Format: binding
Settings: streptavidin beads with quenched fluorescein biotin, typical
Description: Data are plotted as mean channel fluorescence (MCF) versus time for several concentrations of biotin. The binding of fluorescein biotin to streptavidin-coated beads shown in FIG. 12A is characterized by the quenching of fluorescence of particles bound relative to free fluorescein biotin. The quenching is relieved when free biotin is added. The base line fluorescence indicated by the constant signal on the right signifies the “ostrich quenched” fluorescein biotin beads. Typically, this type of quenching, “ostrich quenching,” occurs when the fluorescein moiety associates with the streptavidin-binding pocket adjacent to the biotin-moiety bearing site FIG. 12A. […] The subsequent increase in fluorescence signal on right is caused by homogeneously mixing native biotin with the microspheres causing the unquenching of FITC-biotin in the streptavidin receptor pocket on the bead surface.
A 200 μL volume suspension of streptavidin coated beads (3.7×10^7 beads/mL) was diluted to 4 mL in TRIS buffer, (100 mM Tris HCl, 150 mM NaCl, 0.1% BSA, 0.02% sodium azide, pH 7.5). Subsequently, 1.0 μL of 8.7×10^−6 M fluorescein biotin solution was added to the beads. The sample was continuously agitated for 20 minutes, then centrifuged and resuspended in 6.0 mL of buffer. The final bead suspension comprised of ˜1.1 million beads/mL with a million fluorescein biotin molecules per bead. […]

T1 sequence (P22629 25-183): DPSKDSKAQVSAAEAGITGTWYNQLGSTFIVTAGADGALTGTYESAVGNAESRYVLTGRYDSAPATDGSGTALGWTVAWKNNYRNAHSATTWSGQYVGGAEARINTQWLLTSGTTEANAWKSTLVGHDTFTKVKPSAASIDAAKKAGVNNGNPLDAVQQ

O=C(O)CCCC[C@@H]1SC[C@@H]2NC(=O)N[C@@H]21 [native biotin, Biotin]
increase in fluorescence intensity after mixing with excess native biotin: eight-fold increase
